From patent US20150087673A1, “METHODS FOR USING AND BIOMARKERS FOR AMPK-ACTIVATING COMPOUNDS” (RIGEL PHARMACEUTICALS, INC., priority 2013, published 2015)

test system: AMPK; assay: AMPK activation assay (enzyme-linked immunosorbent assay); assay type: cell-based
Experimental: Compounds were assayed for their ability to activate AMPK using an enzyme-linked immunosorbent assay. Reagents and procedures for measuring AMPK activation are well known and kits for AMPK activation assays are commercially available.

SMILES | EC50
O=C(NC1CCN(Cc2ccccc2)CC1)c1ccc(C(=O)NC2CCN(Cc3ccccc3)CC2)nc1 [Compound 264, N2,N5-bis(1-benzylpiperidin-4-yl)pyridine-2,5-dicarboxamide] | 5000 to 10000 nM
N#Cc1ccc(CN2CCC(NC(=O)c3ccc(C(=O)NCCOc4ccc(F)cc4)cn3)CC2)cc1 [Compound 149, N2-(1-(4-cyanobenzyl)piperidin-4-yl)-N5-(2-(4-fluorophenoxy)ethyl)pyridine-2,5-dicarboxamide] | 500 to 1000 nM
O=C(Nc1ccccc1)c1ccc(C(=O)N2CCN(Cc3ccc(F)cc3)CC2)cn1 [Compound 107, 5-(4-(4-fluorobenzyl)piperazine-1-carbonyl)-N-phenylpicolinamide] | 5000 to 10000 nM
COc1ccc(CN2CCC(NC(=O)c3ccc(C(=O)N4CCC(Oc5ccc(S(C)(=O)=O)cc5)CC4)nc3)CC2)cc1 [Compound 237, N-(1-(4-methoxybenzyl)piperidin-4-yl)-6-(4-(4-(methylsulfonyl)phenoxy)piperidine-1-carbonyl)nicotinamide] | 1000 to 5000 nM
COc1ccc(OC2CCN(C(=O)c3ccc(C(=O)NC4CCN(Cc5ccc(C#N)cc5)CC4)cn3)CC2)c(NC(C)=O)c1 [Compound 383, 6-(4-(2-acetamido-4-methoxyphenoxy)piperidine-1-carbonyl)-N-(1-(4-cyanobenzyl)piperidin-4-yl)nicotinamide] | > 10000 nM
N#Cc1ccc(OC2CCN(C(=O)c3ccc(C(=O)NC4CCN(Cc5ccc(N6CCCC6)cc5)CC4)cn3)CC2)cc1 [Compound 336, 6-(4-(4-cyanophenoxy)piperidine-1-carbonyl)-N-(1-(4-(pyrrolidin-1-yl)benzyl)piperidin-4-yl)nicotinamide] | < 500 nM
COc1ccc(CN2CCC(NC(=O)c3ccc(C(=O)N4CCC(Oc5ccc(S(C)(=O)=O)cc5)CC4)cn3)CC2)cc1 [Compound 202, N-(1-(4-methoxybenzyl)piperidin-4-yl)-5-(4-(4-(methylsulfonyl)phenoxy)piperidine-1-carbonyl)picolinamide] | < 500 nM
O=C(Nc1ccc(Oc2ccc(F)cc2)nc1)c1ccc(C(=O)N2CCC(Oc3ccc(F)cc3F)CC2)nc1 [Compound 343, 6-(4-(2,4-difluorophenoxy)piperidine-1-carbonyl)-N-(6-(4-fluorophenoxy)pyridin-3-yl)nicotinamide] | < 500 nM
N#Cc1ccc(O[C@H]2CC[C@@H](NC(=O)c3ccc(C(=O)N4CCN(Cc5ccc(F)cc5)CC4)cn3)CC2)cc1 [Compound 150, N-(cis-4-(4-cyanophenoxy)cyclohexyl)-5-(4-(4-fluorobenzyl)piperazine-1-carbonyl)picolinamide] | < 500 nM
O=C(NC1CCN(Cc2cc(F)cc(F)c2)CC1)c1ccc(C(=O)N2CCC(Oc3ccc(F)cc3)CC2)cn1 [Compound 295, N-(1-(3,5-difluorobenzyl)piperidin-4-yl)-5-(4-(4-fluorophenoxy)piperidine-1-carbonyl)picolinamide] | < 500 nM
COc1ccc(C(=O)C2CCN(C(=O)c3ccc(C(=O)NC4CCN(Cc5cc(F)cc(F)c5)CC4)cn3)CC2)cc1 [Compound 310, N-(1-(3,5-difluorobenzyl)piperidin-4-yl)-6-(4-(4-methoxybenzoyl)piperidine-1-carbonyl)nicotinamide] | < 500 nM

Next, values leading:

EC50 | SMILES
< 500 nM | CS(=O)(=O)c1ccc(OC2CCN(C(=O)c3cnc(C(=O)Nc4ccc(Oc5ccc(F)cc5)nc4)cn3)CC2)cc1 [Compound 207, N-(6-(4-fluorophenoxy)pyridin-3-yl)-5-(4-(4-(methylsulfonyl)phenoxy)piperidine-1-carbonyl)pyrazine-2-carboxamide]
< 500 nM | O=C(NC1CCN(Cc2cccc(OC(F)(F)F)c2)CC1)c1ccc(C(=O)N2CCC(C(=O)c3ccc(N4CCCC4)cc3)CC2)nc1 [Compound 441, 6-(4-(4-(pyrrolidin-1-yl)benzoyl)piperidine-1-carbonyl)-N-(1-(3-(trifluoromethoxy)benzyl)piperidin-4-yl)nicotinamide]
< 500 nM | N#Cc1ccc(Cn2cc(NC(=O)c3ccc(C(=O)N4CCN(Cc5ccc(F)cc5)CC4)cn3)cn2)cc1 [Compound 23, N-(1-(4-cyanobenzyl)-1H-pyrazol-4-yl)-5-(4-(4-fluorobenzyl)piperazine-1-carbonyl)picolinamide]
< 500 nM | COc1ccc(CN2CCC(N(C)C(=O)c3ccc(C(=O)N4CCC(C(=O)c5ccc(OC)cc5)CC4)nc3)CC2)cc1 [Compound 484, 6-(4-(4-methoxybenzoyl)piperidine-1-carbonyl)-N-(1-(4-methoxybenzyl)piperidin-4-yl)-N-methylnicotinamide]
< 500 nM | N#Cc1ccc(CN2CCC(NC(=O)c3ccc(C(=O)N4CCC(Oc5ccc(C#N)cc5)CC4)cn3)CC2)cc1 [Compound 135, N-(1-(4-cyanobenzyl)piperidin-4-yl)-5-(4-(4-cyanophenoxy)piperidine-1-carbonyl)picolinamide]
< 500 nM | N#Cc1ccc(-c2ccc(NC(=O)c3ccc(C(=O)N4CCN(Cc5ccc(F)cc5)CC4)cn3)cc2)cc1 [Compound 24, N-(4-(4-cyanophenyl)phenyl)-5-(4-(4-fluorobenzyl)piperazine-1-carbonyl)picolinamide]
< 500 nM | COc1ccc(CC2CCN(C(=O)c3ccc(C(=O)NC4CCN(Cc5ccc(C#N)cc5)CC4)nc3)CC2)cc1F [Compound 146, N-(1-(4-cyanobenzyl)piperidin-4-yl)-5-(4-(3-fluoro-4-methoxybenzyl)piperidine-1-carbonyl)picolinamide]
< 500 nM | O=C(Nc1ccc(Oc2ccc(F)cc2)nc1)c1ccc(C(=O)N2CCC(Oc3ccc(S(F)(F)(F)(F)F)cc3)CC2)nc1 [Compound 496, N-(6-(4-fluorophenoxy)pyridin-3-yl)-6-(4-(4-(pentafluorosulfanyl)phenoxy)piperidine-1-carbonyl)nicotinamide]
< 500 nM | N#Cc1ccc(O[C@H]2CC[C@@H](NC(=O)c3ccc(C(=O)N4CCC(Oc5ccc(C(F)(F)F)cc5)CC4)cn3)CC2)cc1F [Compound 199, N-((cis)-4-(4-cyano-3-fluorophenoxy)cyclohexyl)-5-(4-(4-(trifluoromethyl)phenoxy)piperidine-1-carbonyl)picolinamide]
< 500 nM | N#Cc1ccc(CN2CCC(NC(=O)c3ccc(C(=O)N4CCC(Oc5ccc(C(F)(F)F)cc5)CC4)cn3)CC2)cc1 [Compound 157, N-(1-(4-cyanobenzyl)piperidin-4-yl)-5-(4-(4-(trifluoromethyl)phenoxy)piperidine-1-carbonyl)picolinamide]
< 500 nM | CC(C)Oc1ccc(CN2CCC(NC(=O)c3ccc(C(=O)N4CCC(C(=O)c5ccc(N6CCCC6)cc5)CC4)nc3)CC2)cc1 [Compound 446, N-(1-(4-isopropoxybenzyl)piperidin-4-yl)-6-(4-(4-(pyrrolidin-1-yl)benzoyl)piperidine-1-carbonyl)nicotinamide]
< 500 nM | O=C(NC1CCN(Cc2ccc(F)cc2)CC1)c1ccc(C(=O)N2CCC(C(=O)c3ccc(F)cc3)CC2)cn1 [Compound 181, 5-(4-(4-fluorobenzoyl)piperidine-1-carbonyl)-N-(1-(4-fluorobenzyl)piperidin-4-yl)picolinamide]
< 500 nM | CN1CCN(c2ccc(C(=O)C3CCN(C(=O)c4cnc(C(=O)NC5CCN(Cc6ccc(C#N)cc6)CC5)cn4)CC3)cc2)CC1 [Compound 220, N-(1-(4-cyanobenzyl)piperidin-4-yl)-5-(4-(4-(4-methylpiperazin-1-yl)benzoyl)piperidine-1-carbonyl)pyrazine-2-carboxamide]
